Here are results for 27 molecules from US20200263231A1, “Fluorogenic dyes for high sensitivity DNA detection” (LIFE TECHNOLOGIES CORPORATION, priority 2016, published 2020).

Data set [1] can be described thus: UV/VIS absorption spectra. Type of data set: physicochemical. To be noted: 10 μM compound in 50 mM potassium phosphate buffer (pH 7.0). On the procedure:
The UV/VIS absorption spectra were obtained with 10 μM compound solution in 50 mM potassium phosphate buffer (pH 7.0) in a final volume of 3 mL. Measurements were carried out using a Lambda 245 spectrophotometer from Perkin Elmer.

The test system of a further data set is calf thymus DNA. The data set is described as follows: Fluorescence emission and enhancement of compounds bound to calf thymus DNA. Type of data set: binding. The note with it: 0.8 μM compound with 500 ng/ml calf thymus DNA in TE buffer; for Emission Max: excited at 488 nm; for Fluorescence Enhancement: emission area 500-715 nm compared to compound 1, defined as 1000-fold. On the procedure:
Compounds 1-65 were prepared and their fluorescence absorption and emission characteristics were measured. Intrinsic fluorescence of the compounds only (without DNA) was negligible. Emission spectra for the compounds bound to dsDNA were obtained by incubating 0.8 μM compound with 500 ng/ml calf thymus DNA in TE buffer (10 mM Tris-HCl, pH 7.5, 1 mM EDTA) in a final volume of 3 ml. Measurements were made using PerkinElmer LS 55 (F-11) Fluorescence spectrometer. Samples were excited at 488 nm and fluorescence emission was measured with emission slit widths of 2.5 nm. Absorption maxima were determined according to standard techniques.
Fluorescence enhancement measurements of the compounds were obtained by incubating 0.8 μM compound with 500 ng/ml calf thymus DNA with compounds at a final concentration of 0.8 μM in TE buffer. Compound 1 was used as an internal standard to control for variability (e.g., in excitation light intensity). The area-under-curve of fluorescence emission spectra from 500 nm to 715 nm was calculated, and compared to that of compound 1, which was defined as having 1000-fold fluorescence enhancement relative to fluorescence of the compound alone.

Molecules are shown by their SMILES.

In the case of `CCCCN(CCC[N+](C)(C)CC)C1=CC(=Cc2sc3ccccc3[n+]2C)c2ccc(OC)cc2N1c1ccccc1.[I-].[I-]` [Compound 36], the “Absorbance Max” value in data set [1] is reported as 489 nm. In the data set on calf thymus DNA, the “Emission Max” value worked out at 521 nm and the “Fluorescence Enhancement” value is reported as 1071 fold.
On to `CCCCN(CCC[N+](C)(C)CCC)C1=CC(=Cc2sc3ccccc3[n+]2C)c2ccc(OC)cc2N1c1ccccc1.[I-].[I-]` [Compound 37], for which, in data set [1], the “Absorbance Max” value amounted to 489 nm. Further, in the data set with calf thymus DNA, the “Emission Max” value stood at 519 nm and the “Fluorescence Enhancement” value is 1089 fold.
For `CCCCN(CCC[N+](C)(C)CCO)C1=CC(=Cc2sc3ccccc3[n+]2C)c2ccc(OC)cc2N1c1ccccc1.[I-].[I-]` [Compound 38], the “Absorbance Max” value in data set [1] turned out to be 489 nm. For the same molecule, in the data set with calf thymus DNA, the “Emission Max” value is 520 nm and the “Fluorescence Enhancement” value stood at 1089 fold.
Consider `CCCCN(CCC[N+](C)(C)Cc1ccccc1)C1=CC(=Cc2sc3ccccc3[n+]2C)c2ccc(OC)cc2N1c1ccccc1.[I-].[I-]` [Compound 39], for which the “Absorbance Max” value in data set [1] is given as 490 nm. Further, in the data set with calf thymus DNA, the “Emission Max” value was 517 nm and the “Fluorescence Enhancement” value worked out at 1080 fold.
For `CCCCN(CCC[N+](C)(C)Cc1cccc(OC)c1)C1=CC(=Cc2sc3ccccc3[n+]2C)c2ccc(OC)cc2N1c1ccccc1.[Br-].[I-]` [Compound 40], the “Absorbance Max” value in data set [1] is 490 nm. Further, in the data set with calf thymus DNA, the “Emission Max” value is 520 nm and the “Fluorescence Enhancement” value stood at 1050 fold.
Consider `CCCN(CCC[N+](C)(C)CC)C1=CC(=Cc2sc3ccccc3[n+]2C)c2ccc(OC)cc2N1c1ccccc1.[I-].[I-]` [Compound 43], for which the “Absorbance Max” value in data set [1] stood at 494 nm. Moreover, in the data set with calf thymus DNA, the “Emission Max” value is on record as 519 nm and the “Fluorescence Enhancement” value is listed as 1033 fold.
With `CCCN(CCC[N+](C)(C)CCC)C1=CC(=Cc2sc3ccccc3[n+]2C)c2ccc(OC)cc2N1c1ccccc1.[I-].[I-]` [Compound 44], the “Absorbance Max” value in data set [1] is on record as 494 nm. In the data set with calf thymus DNA, the “Emission Max” value is given as 518 nm and the “Fluorescence Enhancement” value is 1101 fold.
For `CCCN(CCC[N+](C)(C)CCO)C1=CC(=Cc2sc3ccccc3[n+]2C)c2ccc(OC)cc2N1c1ccccc1.[I-].[I-]` [Compound 45], in data set [1], the “Absorbance Max” value stood at 494 nm. For the same molecule, in the data set with calf thymus DNA, the “Emission Max” value came to 517 nm and the “Fluorescence Enhancement” value was found to be 1093 fold.
As to `CCCN(CCC[N+](C)(C)Cc1ccccc1)C1=C/C(=C/c2sc3ccccc3[n+]2C)c2ccc(OC)cc2N1c1ccccc1.[Br-].[I-]` [Compound 46], the “Absorbance Max” value in data set [1] was determined as 494 nm. In the data set with calf thymus DNA, the “Emission Max” value was determined as 520 nm and the “Fluorescence Enhancement” value was found to be 931 fold.
As to `CCCN(CCC[N+](C)(C)Cc1cccc(OC)c1)C1=CC(=Cc2sc3ccccc3[n+]2C)c2ccc(OC)cc2N1c1ccccc1.[Br-].[I-]` [Compound 47], the “Absorbance Max” value in data set [1] is reported as 495 nm. Also, in the data set on calf thymus DNA, the “Emission Max” value is reported as 518 nm and the “Fluorescence Enhancement” value came out at 1038 fold.
Take `CCN(CCC[N+](C)(C)C)C1=CC(=Cc2sc3ccccc3[n+]2C)c2ccc(OC)cc2N1c1ccccc1.[I-].[I-]` [Compound 49]: in data set [1], the “Absorbance Max” value came out at 490 nm. In the data set with calf thymus DNA, the “Emission Max” value came to 520 nm and the “Fluorescence Enhancement” value was 1035 fold.
Consider `CCN(CCC[N+](C)(C)CC)C1=CC(=Cc2sc3ccccc3[n+]2C)c2ccc(OC)cc2N1c1ccccc1.[I-].[I-]` [Compound 50], for which the “Absorbance Max” value in data set [1] was found to be 490 nm. Also, in the data set on calf thymus DNA, the “Emission Max” value was 519 nm and the “Fluorescence Enhancement” value came out at 1020 fold.
Take `CCC[N+](C)(C)CCCN(CC)C1=CC(=Cc2sc3ccccc3[n+]2C)c2ccc(OC)cc2N1c1ccccc1.[I-].[I-]` [Compound 51]: the “Absorbance Max” value in data set [1] is given as 490 nm. In the data set with calf thymus DNA, the “Emission Max” value stood at 520 nm and the “Fluorescence Enhancement” value stood at 1016 fold.
The corresponding values for `CCN(CCC[N+](C)(C)CCO)C1=C/C(=C/c2sc3ccccc3[n+]2C)c2ccc(OC)cc2N1c1ccccc1` [Compound 52] are 490 nm, 519 nm and 1031 fold.
The corresponding values for `CCN(CCC[N+](C)(C)Cc1ccccc1)C1=C/C(=C/c2sc3ccccc3[n+]2C)c2ccc(OC)cc2N1c1ccccc1.[Br-].[I-]` [Compound 53] are 490 nm, 520 nm and 1011 fold.
With `CCN(CCC[N+](C)(C)Cc1cccc(OC)c1)C1=CC(=Cc2sc3ccccc3[n+]2C)c2ccc(OC)cc2N1c1ccccc1.[Br-].[I-]` [Compound 54], the “Absorbance Max” value in data set [1] came out at 490 nm. In the data set on calf thymus DNA, the “Emission Max” value is listed as 517 nm and the “Fluorescence Enhancement” value worked out at 1008 fold.
Turning to `CCN(CCN(C)C)C1=C/C(=C/c2sc3ccccc3[n+]2C)c2ccc(OC)cc2N1c1ccccc1.[I-]` [Compound 55], in data set [1], the “Absorbance Max” value was determined as 496 nm. In addition, in the data set on calf thymus DNA, the “Emission Max” value was 520 nm and the “Fluorescence Enhancement” value is on record as 908 fold.
For `CCN(CC[N+](C)(C)C)C1=C/C(=C/c2sc3ccccc3[n+]2C)c2ccc(OC)cc2N1c1ccccc1.[I-].[I-]` [Compound 56] the same measures were 499 nm, 523 nm and 894 fold.
For `CCN(CC[N+](C)(C)CC)C1=C/C(=C/c2sc3ccccc3[n+]2C)c2ccc(OC)cc2N1c1ccccc1.[I-].[I-]` [Compound 57] the same measures were 496 nm, 521 nm and 877 fold.
As to `CCC[N+](C)(C)CCN(CC)C1=C/C(=C/c2sc3ccccc3[n+]2C)c2ccc(OC)cc2N1c1ccccc1.[I-].[I-]` [Compound 58], the “Absorbance Max” value in data set [1] is 496 nm. In the data set with calf thymus DNA, the “Emission Max” value stood at 521 nm and the “Fluorescence Enhancement” value amounted to 874 fold.
For the molecule `CCN(CC[N+](C)(C)CCO)C1=C/C(=C\c2sc3ccccc3[n+]2C)c2ccc(OC)cc2N1c1ccccc1.[I-].[I-]` [Compound 59], the “Absorbance Max” value in data set [1] was 498 nm. In the data set with calf thymus DNA, the “Emission Max” value is listed as 520 nm and the “Fluorescence Enhancement” value came out at 863 fold.
Turning to `CCN(CC[N+](C)(C)Cc1ccccc1)C1=C/C(=C/c2sc3ccccc3[n+]2C)c2ccc(OC)cc2N1c1ccccc1.[I-].[I-]` [Compound 60], the “Absorbance Max” value in data set [1] worked out at 500 nm. In addition, in the data set with calf thymus DNA, the “Emission Max” value was 522 nm and the “Fluorescence Enhancement” value worked out at 878 fold.
Regarding `C[n+]1c(/C=C2/C=C(n3ccnc3)N(c3ccccc3)c3ccccc32)sc2ccccc21.[I-]` [Compound 61], in data set [1], the “Absorbance Max” value was 514 nm. Also, in the data set with calf thymus DNA, the “Emission Max” value was found to be 540 nm and the “Fluorescence Enhancement” value was 26 fold.
Take `C[n+]1ccn(C2=C/C(=C/c3sc4ccccc4[n+]3C)c3ccccc3N2c2ccccc2)c1.[I-].[I-]` [Compound 62]: the “Absorbance Max” value in data set [1] amounted to 519 nm. Also, the “Fluorescence Enhancement” value with calf thymus DNA is 0.3 fold.
For `C[n+]1c(/C=C2/C=C(n3cnc4ccccc43)N(c3ccccc3)c3ccccc32)sc2ccccc21.[Cl-]` [Compound 63], in data set [1], the “Absorbance Max” value stood at 518 nm. In the data set with calf thymus DNA, the “Emission Max” value amounted to 543 nm and the “Fluorescence Enhancement” value is 42 fold.
Take `CN(C)CCCC1=C/C(=C/c2sc3ccccc3[n+]2C)c2ccccc2N1c1ccccc1` [Compound 64]: in data set [1], the “Absorbance Max” value was 527 nm. In the data set on calf thymus DNA, the “Emission Max” value is 529 nm and the “Fluorescence Enhancement” value amounted to 204 fold.
The corresponding values for `C[n+]1c(/C=C2/C=C(CCC[N+](C)(C)C)N(c3ccccc3)c3ccccc32)sc2ccccc21` [Compound 65] are 527 nm, 530 nm and 136 fold.
